Experimental data: ChEMBL document CHEMBL4765295, “Synthesis, pharmacological profile and 2D-QSAR studies of curcumin-amino acid conjugates as potential drug candidates” (Eur J Med Chem, 2020)
Where “and” joins values, the source holds several entries; their conditions need not be identical. Identical values can stand only once.

Test system: Candida albicans
Experiment: Antifungal activity against Candida albicans incubated for 18 to 24 hrs by CLSI method
Assay type: functional
Settings: time 18-24 hrs

MIC | Structure (SMILES)
2 µg/mL and 2.52 µM | CC[C@H](C)[C@H](NC(=O)OC(C)(C)C)C(=O)Oc1ccc(/C=C/C(=O)/C=C(O)/C=C/c2ccc(OC(=O)[C@@H](NC(=O)OC(C)(C)C)[C@@H](C)CC)c(OC)c2)cc1OC

Test system: Streptococcus pyogenes
Experiment: Antibacterial activity against Streptococcus pyogenes ATCC 19615 incubated for 18 hrs by agar dilution method
Assay type: functional
Settings: not given

MIC | Structure (SMILES)
0.25 µg/mL and 0.314 µM | CC[C@H](C)[C@H](NC(=O)OC(C)(C)C)C(=O)Oc1ccc(/C=C/C(=O)/C=C(O)/C=C/c2ccc(OC(=O)[C@@H](NC(=O)OC(C)(C)C)[C@@H](C)CC)c(OC)c2)cc1OC

Test system: Rattus norvegicus
Experiment: Anti-inflammatory activity in Wistar rat assessed as inhibition of carrageenan-induced paw edema at 10 mg/kg, ip pretreated for 1 hr followed by carrageenan challenge and measured after 1 hr relative to control (reference value: 0.00 +/-0.02 %)
Assay type: functional
Settings: time 2 hrs

Structure (SMILES) | inhibition in vivo at 10 mg/kg [%]
CC[C@H](C)[C@H](NC(=O)OC(C)(C)C)C(=O)Oc1ccc(/C=C/C(=O)/C=C(O)/C=C/c2ccc(OC(=O)[C@@H](NC(=O)OC(C)(C)C)[C@@H](C)CC)c(OC)c2)cc1OC | 33

Test system: Rattus norvegicus
Experiment: Anti-inflammatory activity in Wistar rat assessed as inhibition of carrageenan-induced paw edema at 10 mg/kg, ip pretreated for 1 hr followed by carrageenan challenge and measured after 24 hr relative to control (reference value: 0.00 +/-0.3 %)
Assay type: functional
Settings: time 25 hrs

Structure (SMILES) | inhibition in vivo at 10 mg/kg [%]
CC[C@H](C)[C@H](NC(=O)OC(C)(C)C)C(=O)Oc1ccc(/C=C/C(=O)/C=C(O)/C=C/c2ccc(OC(=O)[C@@H](NC(=O)OC(C)(C)C)[C@@H](C)CC)c(OC)c2)cc1OC | 41

Test system: Rattus norvegicus
Experiment: Antiinflammatory activity in Wistar rat model of carrageenan-induced paw edema assessed as reduction in thickness of paw edema at 10 mg/kg, ip pretreated for 1 hr followed by carrageenan challenge and measured after 3 hrs (reference value: 1.79 +/-0.07 mm)
Assay type: functional
Settings: time 4 hrs

Structure (SMILES) | Activity [mm]
CC[C@H](C)[C@H](NC(=O)OC(C)(C)C)C(=O)Oc1ccc(/C=C/C(=O)/C=C(O)/C=C/c2ccc(OC(=O)[C@@H](NC(=O)OC(C)(C)C)[C@@H](C)CC)c(OC)c2)cc1OC | 0.91

Test system: Splenocyte
Experiment: Immunomodulatory activity in Swiss albino mouse splenocytes assessed as cell viability at 10 uM by measuring stimulation index incubated for 72 hrs in presence of mitogenic stimulus phytohaemagglutinin by MTT assay (reference value: 1.00 +/- 0.24)
Assay type: functional
Settings: not given

Structure (SMILES) | Activity_index
CC[C@H](C)[C@H](NC(=O)OC(C)(C)C)C(=O)Oc1ccc(/C=C/C(=O)/C=C(O)/C=C/c2ccc(OC(=O)[C@@H](NC(=O)OC(C)(C)C)[C@@H](C)CC)c(OC)c2)cc1OC | 2.07

Test system: Peritoneal macrophage
Experiment: Antiinflammatory activity in […] mouse Peritoneal macrophages assessed as reduction in LPS-induced NO production by measuring reduction in stimulation index at 10 uM preincubated for 1 hr followed by LPS stimulation measured after 24 hrs by Griess method (reference value: 27.31 +/- 2.56 uM)
Assay type: functional
Settings: time 25 hrs

Structure (SMILES) | Activity [µM]
CC[C@H](C)[C@H](NC(=O)OC(C)(C)C)C(=O)Oc1ccc(/C=C/C(=O)/C=C(O)/C=C/c2ccc(OC(=O)[C@@H](NC(=O)OC(C)(C)C)[C@@H](C)CC)c(OC)c2)cc1OC | 20.81

Test system: Rattus norvegicus
Experiment: Anti-inflammatory activity in Wistar rat assessed as inhibition of carrageenan-induced paw edema at 10 mg/kg, ip pretreated for 1 hr followed by carrageenan challenge and measured after 4 hr relative to indomethacin
Assay type: functional
Settings: time 5 hrs

Structure (SMILES) | inhibition in vivo at 10 mg/kg [%]
CC[C@H](C)[C@H](NC(=O)OC(C)(C)C)C(=O)Oc1ccc(/C=C/C(=O)/C=C(O)/C=C/c2ccc(OC(=O)[C@@H](NC(=O)OC(C)(C)C)[C@@H](C)CC)c(OC)c2)cc1OC | 59

Test system: Rattus norvegicus
Experiment: Anti-inflammatory activity in Wistar rat assessed as inhibition of carrageenan-induced paw edema at 10 mg/kg, ip pretreated for 1 hr followed by carrageenan challenge and measured after 2 hr relative to control (reference value: 0.00 +/-0.03 %)
Assay type: functional
Settings: time 3 hrs

Structure (SMILES) | inhibition in vivo at 10 mg/kg [%]
CC[C@H](C)[C@H](NC(=O)OC(C)(C)C)C(=O)Oc1ccc(/C=C/C(=O)/C=C(O)/C=C/c2ccc(OC(=O)[C@@H](NC(=O)OC(C)(C)C)[C@@H](C)CC)c(OC)c2)cc1OC | 38

Test system: Rattus norvegicus
Experiment: Anti-inflammatory activity in Wistar rat assessed as inhibition of carrageenan-induced paw edema at 10 mg/kg, ip pretreated for 1 hr followed by carrageenan challenge and measured after 3 hr relative to control (reference value: 0.00 +/-0.1 %)
Assay type: functional
Settings: time 4 hrs

Structure (SMILES) | inhibition in vivo at 10 mg/kg [%]
CC[C@H](C)[C@H](NC(=O)OC(C)(C)C)C(=O)Oc1ccc(/C=C/C(=O)/C=C(O)/C=C/c2ccc(OC(=O)[C@@H](NC(=O)OC(C)(C)C)[C@@H](C)CC)c(OC)c2)cc1OC | 49

Test system: Rattus norvegicus
Experiment: Antiinflammatory activity in Wistar rat model of carrageenan-induced paw edema assessed as reduction in thickness of paw edema at 10 mg/kg, ip pretreated for 1 hr followed by carrageenan challenge and measured after 4 hrs (reference value: 1.40 +/-0.10 mm)
Assay type: functional
Settings: time 5 hrs

Structure (SMILES) | Activity [mm]
CC[C@H](C)[C@H](NC(=O)OC(C)(C)C)C(=O)Oc1ccc(/C=C/C(=O)/C=C(O)/C=C/c2ccc(OC(=O)[C@@H](NC(=O)OC(C)(C)C)[C@@H](C)CC)c(OC)c2)cc1OC | 0.69

Test system: Rattus norvegicus
Experiment: Antiinflammatory activity in Wistar rat model of carrageenan-induced paw edema assessed as reduction in thickness of paw edema at 10 mg/kg, ip pretreated for 1 hr followed by carrageenan challenge and measured after 1 hr (reference value: 2.41 +/-0.05 mm)
Assay type: functional
Settings: time 1 hr after carrageenan

Structure (SMILES) | Activity [mm]
CC[C@H](C)[C@H](NC(=O)OC(C)(C)C)C(=O)Oc1ccc(/C=C/C(=O)/C=C(O)/C=C/c2ccc(OC(=O)[C@@H](NC(=O)OC(C)(C)C)[C@@H](C)CC)c(OC)c2)cc1OC | 1.61

Test system: Peritoneal macrophage
Experiment: Antiinflammatory activity in […] mouse Peritoneal macrophages assessed as inhibition of LPS-induced NO production at 10 uM preincubated for 1 hr followed by LPS stimulation measured after 24 hrs by Griess method relative to control (reference value: 0.0 %)
Assay type: functional
Parameters: scale not given: the % may be the effect or the level left
Settings: time 25 hrs

Structure (SMILES) | Activity [%]
CC[C@H](C)[C@H](NC(=O)OC(C)(C)C)C(=O)Oc1ccc(/C=C/C(=O)/C=C(O)/C=C/c2ccc(OC(=O)[C@@H](NC(=O)OC(C)(C)C)[C@@H](C)CC)c(OC)c2)cc1OC | 23.82

Test system: Pseudomonas aeruginosa
Experiment: Antibacterial activity against Pseudomonas aeruginosa ATCC 27853 incubated for 18 hrs by agar dilution assay
Assay type: functional
Settings: not given

MIC | Structure (SMILES)
1 µg/mL and 1.26 µM | CC[C@H](C)[C@H](NC(=O)OC(C)(C)C)C(=O)Oc1ccc(/C=C/C(=O)/C=C(O)/C=C/c2ccc(OC(=O)[C@@H](NC(=O)OC(C)(C)C)[C@@H](C)CC)c(OC)c2)cc1OC

Test system: Rattus norvegicus
Experiment: Anti-inflammatory activity in Wistar rat assessed as inhibition of carrageenan-induced paw edema at 10 mg/kg, ip pretreated for 1 hr followed by carrageenan challenge and measured after 4 hr relative to control (reference value: 0.00 +/-0.4 %)
Assay type: functional
Settings: time 5 hrs

Structure (SMILES) | inhibition in vivo at 10 mg/kg [%]
CC[C@H](C)[C@H](NC(=O)OC(C)(C)C)C(=O)Oc1ccc(/C=C/C(=O)/C=C(O)/C=C/c2ccc(OC(=O)[C@@H](NC(=O)OC(C)(C)C)[C@@H](C)CC)c(OC)c2)cc1OC | 51

Test system: Splenocyte
Experiment: Immunomodulatory activity in Swiss albino mouse splenocytes assessed as cell viability at 10 uM by measuring inhibition of stimulation index incubated for 72 hrs in presence of mitogenic stimulus phytohaemagglutinin by MTT assay relative to indomethacin
Assay type: functional
Settings: read-out: Activity

Structure (SMILES) | viability at 10 µM [%]
CC[C@H](C)[C@H](NC(=O)OC(C)(C)C)C(=O)Oc1ccc(/C=C/C(=O)/C=C(O)/C=C/c2ccc(OC(=O)[C@@H](NC(=O)OC(C)(C)C)[C@@H](C)CC)c(OC)c2)cc1OC | 58.3

Test system: Salmonella typhimurium
Experiment: Antibacterial activity against Salmonella typhimurium ATCC 19430 incubated for 18 hrs by agar dilution assay
Assay type: functional, Salmonella enterica subsp. enterica serovar Typhimurium
Settings: Salmonella enterica

MIC | Structure (SMILES)
0.125 µg/mL and 0.157 µM | CC[C@H](C)[C@H](NC(=O)OC(C)(C)C)C(=O)Oc1ccc(/C=C/C(=O)/C=C(O)/C=C/c2ccc(OC(=O)[C@@H](NC(=O)OC(C)(C)C)[C@@H](C)CC)c(OC)c2)cc1OC

Test system: Rattus norvegicus
Experiment: Antiinflammatory activity in Wistar rat model of carrageenan-induced paw edema assessed as reduction in thickness of paw edema at 10 mg/kg, ip pretreated for 1 hr followed by carrageenan challenge and measured after 2 hrs (reference value: 2.06 +/-0.09 mm)
Assay type: functional
Settings: time 3 hrs

Structure (SMILES) | Activity [mm]
CC[C@H](C)[C@H](NC(=O)OC(C)(C)C)C(=O)Oc1ccc(/C=C/C(=O)/C=C(O)/C=C/c2ccc(OC(=O)[C@@H](NC(=O)OC(C)(C)C)[C@@H](C)CC)c(OC)c2)cc1OC | 1.27

Test system: Rattus norvegicus
Experiment: Antiinflammatory activity in Wistar rat model of carrageenan-induced paw edema assessed as reduction in thickness of paw edema at 10 mg/kg, ip pretreated for 1 hr followed by carrageenan challenge and measured after 24 hrs (reference value: 0.83 +/-0.08 mm)
Assay type: functional
Settings: time 25 hrs

Structure (SMILES) | Activity [mm]
CC[C@H](C)[C@H](NC(=O)OC(C)(C)C)C(=O)Oc1ccc(/C=C/C(=O)/C=C(O)/C=C/c2ccc(OC(=O)[C@@H](NC(=O)OC(C)(C)C)[C@@H](C)CC)c(OC)c2)cc1OC | 0.49

Test system: Staphylococcus aureus
Experiment: Antibacterial activity against Staphylococcus aureus ATCC 25923 incubated for 18 hrs by agar dilution method
Assay type: functional
Settings: not given

MIC | Structure (SMILES)
0.125 µg/mL and 0.157 µM | CC[C@H](C)[C@H](NC(=O)OC(C)(C)C)C(=O)Oc1ccc(/C=C/C(=O)/C=C(O)/C=C/c2ccc(OC(=O)[C@@H](NC(=O)OC(C)(C)C)[C@@H](C)CC)c(OC)c2)cc1OC
